From ChEMBL document CHEMBL1144933, “Novel bioactive and stable neurotensin peptide analogues capable of delivering radiopharmaceuticals and molecular beacons to tumors” (J Med Chem, 2003)
*1 amine or outer side, *2 acyl side, *3 side chain or, on linkers, in order; H or OH if unused. Where a SMILES comes first, the peptide text is derived from it. [ ]: non-standard residue; d: D form. The star is where a group is joined. Abu(1-amidino-4-piperidyl) = N=C(N)N1CCC(CC[C@H](N)C(=O)O)CC1; Gly(1-amidinopiperidin-4-yl) = N=C(N)N1CCC([C@H](N)C(=O)O)CC1; Ala(1-amidino-4-piperidyl) = N=C(N)N1CCC(C[C@H](N)C(=O)O)CC1; DTPA = O=C(O)CN(CCN(CC(=O)O)CC(=O)O)CCN(CC(=O)O)CC(=O)*; Phe(4-guanidino) = N=C(N)Nc1ccc(C[C@H](N)C(=O)O)cc1; X1 = NCC1CCC(C[C@H](N[*:1])C(=O)[*:2])CC1; Tle = CC(C)(C)[C@H](N)C(=O)O

Molecular target: Neurotensin receptor type 1 (Homo sapiens, UniProt P30989)
Test: Binding affinity towards neurotensin receptor in membranes prepared from HT-29 cell line, relative to [111In]-labeled neurotensin peptide

Sequence of Neurotensin receptor type 1 (P30989 whole entry): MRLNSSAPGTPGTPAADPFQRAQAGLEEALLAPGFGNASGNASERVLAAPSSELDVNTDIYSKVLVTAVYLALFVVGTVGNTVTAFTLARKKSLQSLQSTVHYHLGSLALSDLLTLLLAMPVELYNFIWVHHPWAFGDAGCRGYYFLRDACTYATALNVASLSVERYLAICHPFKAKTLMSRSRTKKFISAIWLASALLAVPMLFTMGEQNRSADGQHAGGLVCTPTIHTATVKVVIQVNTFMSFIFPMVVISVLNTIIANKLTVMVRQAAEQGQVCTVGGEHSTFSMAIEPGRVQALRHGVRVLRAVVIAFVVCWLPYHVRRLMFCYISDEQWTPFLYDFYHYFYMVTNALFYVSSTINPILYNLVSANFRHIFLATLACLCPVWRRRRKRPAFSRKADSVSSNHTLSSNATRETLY

SMILES	IC50 (ht-29) [nM]	IC50 [nM]
CC[C@H](C)[C@H](NC(=O)[C@H](Cc1ccc(O)cc1)NC(=O)[C@@H]1CCCN1C(=O)[C@H](CCCN=C(N)N)NC(=O)[C@@H](NC(=O)[C@@H]1CCCN1C(=O)[C@@H](CCCCNC(=S)Nc1ccc2c(c1)C(=O)OC21c2ccc(O)cc2Oc2cc(O)ccc21)NC(=S)Nc1ccc2c(c1)C(=O)OC21c2ccc(O)cc2Oc2cc(O)ccc21)C1CCN(C(=N)N)CC1)C(=O)N[C@@H](CC(C)C)C(=O)O	3.4	–
CC[C@H](C)[C@H](NC(=O)[C@H](Cc1ccc(O)cc1)NC(=O)[C@@H]1CCCN1C(=O)[C@H](CCCN=C(N)N)NC(=O)[C@@H](NC(=O)[C@@H]1CCCN1C(=O)[C@H](N)CCCCNC(=S)Nc1ccc2c(c1)C(=O)OC21c2ccc(O)cc2Oc2cc(O)ccc21)C1CCN(C(=N)N)CC1)C(=O)N[C@@H](CC(C)C)C(=O)O	0.6	–
CC(C)C[C@H](NC(=O)[C@@H](NC(=O)[C@H](Cc1ccc(O)cc1)NC(=O)[C@@H]1CCCN1C(=O)[C@H](CCCNC(=N)N)NC(=O)[C@H](CCC1CCN(C(=N)N)CC1)NC(=O)[C@@H]1CCCN1C(=O)[C@@H](CCCCN)NC(=O)CN(CCN(CCN(CC(=O)O)CC(=O)O)CC(=O)O)CC(=O)O)C(C)(C)C)C(=O)O ({DTPA}-[dK]P[Abu(1-amidino-4-piperidyl)]RPY[Tle]L-OH)	–	6.3
CC(C)(C)C[C@H](NC(=O)[C@@H](NC(=O)[C@H](Cc1ccc(O)cc1)NC(=O)[C@@H]1CCCN1C(=O)[C@H](CCCNC(=N)N)NC(=O)[C@@H](NC(=O)[C@@H]1CCCN1C(=O)[C@H](CCCCN)NC(=O)[C@H](CC(N)=O)NC(=O)[C@H](CCC(=O)O)NC(=O)[C@@H](Cc1ccc(O)cc1)NC(=O)CN(CCN(CCN(CC(=O)O)CC(=O)O)CC(=O)O)CC(=O)O)C1CCN(C(=N)N)CC1)C(C)(C)C)C(=O)O	–	0.4
CC(C)C[C@H](NC(=O)[C@@H](NC(=O)[C@H](Cc1ccc(O)cc1)NC(=O)[C@@H]1CCCN1C(=O)[C@H](CCCNC(=N)N)NC(=O)[C@@H](NC(=O)[C@@H]1CCCN1C(=O)[C@H](CC1CCN(C(=N)N)CC1)NC(=O)CN(CCN(CCN(CC(=O)O)CC(=O)O)CC(=O)O)CC(=O)O)C1CCN(C(=N)N)CC1)C(C)(C)C)C(=O)O ({DTPA}-[Ala(1-amidino-4-piperidyl)]P[Gly(1-amidinopiperidin-4-yl)]RPY[Tle]L-OH)	> 1000	–
CC(C)C[C@H](NC(=O)[C@@H](NC(=O)[C@H](Cc1cccc(O)c1)NC(=O)[C@@H]1CCCN1C(=O)[C@H](CCCN=C(N)N)NC(=O)[C@@H](NC(=O)[C@@H]1CCCN1C(=O)[C@@H](CCCCN)NC(=O)CN(CCN(CCN(CC(=O)O)CC(=O)O)CC(=O)O)CC(=O)O)C1CCN(C(=N)N)CC1)C(C)(C)C)C(=O)O	106	–
CC[C@H](C)[C@H](NC(=O)[C@H](Cc1ccc(O)cc1)NC(=O)[C@@H]1CCCN1C(=O)[C@H](Cc1ccc(N=C(N)N)cc1)NC(=O)[C@H](CCCNC(=N)N)NC(=O)[C@@H]1CCCN1C(=O)[C@@H](CCCCN)NC(=O)CN(CCN(CCN(CC(=O)O)CC(=O)O)CC(=O)O)CC(=O)O)C(=O)N[C@@H](CC(C)C)C(=O)O	–	0.4
CC(C)(C)C[C@H](NC(=O)[C@@H](NC(=O)[C@H](Cc1ccc(O)cc1)NC(=O)[C@@H]1CCCN1C(=O)[C@H](CCCN=C(N)N)NC(=O)[C@@H](NC(=O)[C@@H]1CCCN1C(=O)[C@@H](CCCCN)NC(=O)CN(CCN(CCN(CC(=O)O)CC(=O)O)CC(=O)O)CC(=O)O)C1CCN(C(=N)N)CC1)C(C)(C)C)C(=O)O	–	21.7
CC[C@H](C)[C@H](NC(=O)[C@H](Cc1ccc(O)cc1)NC(=O)[C@@H]1CCCN1C(=O)[C@H](Cc1ccc(NC(=N)N)cc1)NC(=O)[C@H](Cc1ccc(NC(=N)N)cc1)NC(=O)[C@@H]1CCCN1C(=O)[C@@H](CCCCN)NC(=O)CN(CCN(CCN(CC(=O)O)CC(=O)O)CC(=O)O)CC(=O)O)C(=O)N[C@@H](CC(C)C)C(=O)O ({DTPA}-[dK]P[Phe(4-guanidino)][Phe(4-guanidino)]PYIL-OH)	–	22.1
CC(C)C[C@H](NC(=O)[C@@H](NC(=O)[C@H](Cc1ccc(O)cc1)NC(=O)[C@@H]1CCCN1C(=O)[C@H](CCCN=C(N)N)NC(=O)[C@@H](NC(=O)[C@@H]1CCCN1C(=O)[C@H](CCCCN)NC(=O)[C@H](CC(N)=O)NC(=O)[C@H](CCC(=O)O)NC(=O)[C@@H](Cc1ccc(O)cc1)NC(=O)CN(CCN(CCN(CC(=O)O)CC(=O)O)CC(=O)O)CC(=O)O)C1CCN(C(=N)N)CC1)C(C)(C)C)C(=O)O	–	1.5
CC(C)C[C@H](NC(=O)[C@@H](NC(=O)[C@H](Cc1ccc(O)cc1)NC(=O)[C@@H]1CCCN1C(=O)[C@H](CCCN=C(N)N)NC(=O)[C@@H](NC(=O)[C@@H]1CCCN1C(=O)[C@H](CC1CCC(CN)CC1)NC(=O)CN(CCN(CCN(CC(=O)O)CC(=O)O)CC(=O)O)CC(=O)O)C1CCN(C(=N)N)CC1)C(C)(C)C)C(=O)O (stereo partly drawn) ({DTPA}-[X1]P[Gly(1-amidinopiperidin-4-yl)]RPY[Tle]L-OH)	–	0.3
CC(C)C[C@H](NC(=O)[C@@H](NC(=O)[C@@H](Cc1ccc(O)cc1)NC(=O)[C@@H]1CCCN1C(=O)[C@H](CCCN=C(N)N)NC(=O)[C@@H](NC(=O)[C@@H]1CCCN1C(=O)[C@@H](CCCCN)NC(=O)CN(CCN(CCN(CC(=O)O)CC(=O)O)CC(=O)O)CC(=O)O)C1CCN(C(=N)N)CC1)C(C)(C)C)C(=O)O	0.6	–
CC(C)C[C@H](NC(=O)[C@@H](NC(=O)[C@H](Cc1ccc(O)cc1)NC(=O)[C@@H]1CCCN1C(=O)[C@H](CCCNC(=N)N)NC(=O)[C@H](CC1CCN(C(=N)N)CC1)NC(=O)[C@@H]1CCCN1C(=O)[C@@H](CCCCN)NC(=O)CN(CCN(CCN(CC(=O)O)CC(=O)O)CC(=O)O)CC(=O)O)C(C)(C)C)C(=O)O ({DTPA}-[dK]P[Ala(1-amidino-4-piperidyl)]RPY[Tle]L-OH)	–	2.5
CC[C@H](C)[C@H](NC(=O)[C@H](Cc1ccc(O)cc1)NC(=O)[C@@H]1CCCN1C(=O)[C@H](CCCN=C(N)N)NC(=O)[C@H](CCc1ccnc(N)n1)NC(=O)[C@@H]1CCCN1C(=O)[C@@H](CCCCN)NC(=O)CN(CCN(CCN(CC(=O)O)CC(=O)O)CC(=O)O)CC(=O)O)C(=O)N[C@@H](CC(C)C)C(=O)O	10.2	–
CC[C@H](C)[C@H](NC(=O)[C@H](Cc1ccc(O)cc1)NC(=O)[C@@H]1CCCN1C(=O)[C@H](CCCNC(=N)N)NC(=O)[C@@H](NC(=O)[C@@H]1CCCN1C(=O)[C@@H](CCCCN)NC(=S)Nc1ccc2c(c1)C(=O)OC21c2ccc(O)cc2Oc2cc(O)ccc21)C1CCN(C(=N)N)CC1)C(=O)N[C@@H](CC(C)C)C(=O)O	1.2	–
CC(C)C[C@H](NC(=O)[C@@H](NC(=O)[C@H](Cc1ccc(O)cc1)NC(=O)[C@@H]1CCCN1C(=O)[C@H](CCCN=C(N)N)NC(=O)[C@H](Cc1ccc(NC(=N)N)cc1)NC(=O)[C@@H]1CCCN1C(=O)[C@@H](CCCCN)NC(=O)CN(CCN(CCN(CC(=O)O)CC(=O)O)CC(=O)O)CC(=O)O)C(C)(C)C)C(=O)O ({DTPA}-[dK]P[Phe(4-guanidino)]RPY[Tle]L-OH)	–	24.6
CC(C)(C)[C@H](NC(=O)[C@H](Cc1ccc(O)cc1)NC(=O)[C@@H]1CCCN1C(=O)[C@H](CCCNC(=N)N)NC(=O)[C@@H](NC(=O)[C@@H]1CCCN1C(=O)[C@@H](CCCCN)NC(=O)CN(CCN(CCN(CC(=O)O)CC(=O)O)CC(=O)O)CC(=O)O)C1CCN(C(=N)N)CC1)C(=O)N[C@@H](CC1CCCC1)C(=O)O	–	42.4
CC(C)C[C@H](NC(=O)[C@@H](NC(=O)[C@H](Cc1ccc(O)cc1)NC(=O)[C@@H]1CCCN1C(=O)[C@H](CCCN=C(N)N)NC(=O)[C@@H](NC(=O)[C@@H]1CCCN1C(=O)[C@@H](CCCCN)NC(=O)CN(CCN(CCN(CC(=O)O)CC(=O)O)CC(=O)O)CC(=O)O)C1CCN(C(=N)N)CC1)C(C)(C)C)C(=O)O	0.4	–
